Patent publication US4876346A, “Quinoline compounds” (American Home Products Corporation, priority 1986, dated 1989)
Counter-ions that a name gives are not always drawn. Like-named read-outs stand apart in the source and are kept apart here.

How the values were obtained:
[1] = test system: LTD4 induced bronchoconstriction; assay: In vivo inhibition of bronchospasm induced in guinea pigs by exogenously administered leukotrienes (Example 11); design: species or system guinea pig (male Hartley); settings: 10 minutes before induction of bronchospasm (LTD4), guinea pig; for inhibition in vivo at 25 mg/kg / inhibition in vivo at 50 mg/kg: Cavia porcellus, read-out: % Inhibition of Max AUC
[2] = test system: 5-HETE synthesis by rat glycogen elicited polymorphonuclear leukocytes; assay: Inhibition of synthesis of 5-HETE by rat glycogen elicited polymorphonuclear leukocytes (Example 10); format: cell-based, rat (female Wistar); settings: Leukocyte, [14C]5-HETE synthesis, rat PMN; for IC50: read-out: 50% Inhibitory Concentration (IC50)
Description: (§1) The assay is carried out as follows:
Peritoneal PMN are obtained from female Wistar rats (150-250 g) that received an i.p. injection of 6% glycogen (10 ml). After 24 hours, rats are killed by CO2 asphyxiation and peritoneal cells are harvested by peritoneal lavage using Ca^++ and Mg^++ free Hanks' balanced salt solution (HBSS). The peritoneal exudate is centrifuged at 400 g for 10 minutes. After centrifugation, the lavaged fluid is removed and the cell pellet is […] in HBSS containing Ca^++ and Mg^++ and 10 mM L-cystein at a concentration of 2×10^7 cells/ml. To 1 ml portions of cell suspens, test drugs or vehicle are added and incubated at 37° C. for 10 minutes. Following this preincubation, the calcium ionophore (10 μM), A23187, is added together with 0.5 μCi [^14 C] arachidonic acid and further incubated for 10 minutes. The reaction is stopped by the addition of ice cold water (3 ml) and acidifying to pH 3.5. Lipoxygenase products are then extracted twice into diethyl ether. The pooled ether extracts are evaporated to dryness under nitrogen and the residue is redissolved in a small volume of methanol and spotted on aluminum backed pre-coated thin layer chromatographic plates. The samples are then co-chromatographed with authentic reference 5-HETE in the solvent system--hexane:ether:acetic acid (50:50:3). After chromatography, the areas associated with 5-HETE standard are identified by autoradiography, cut out and quantitated by liquid scintillation.
Results are expressed as % inhibition of [^14 C]5-HETE synthesis. [formula]

[3] = test system: ovalbumin induced bronchospasm; assay: In vivo inhibition of ovalbumin induced bronchospasm in sensitized guinea pigs mediated by endogenous mediators (Example 12); design: species or system guinea pig (male Hartley); settings: Cavia porcellus, 10 minutes before ovalbumin challenge, guinea pig, read-out: % Inhibition of Max AUC
Description: The assay of this Example measures the in vivo ability of the compounds of the invention to inhibit the bronchospasm induced in guinea pigs by endogenous mediators of the bronchoconstriction.
as §1
Male Hartley strain guinea pigs weighing 250-350 g are sensitized to chicken ovalbumin (OA) (10 mg i.p.) on days 1 and 3 and used starting on day 26. The animals are anesthetized with pentobarbital sodium (50 mg/kg, i.p.), bilateral vagotomy is performed, and the jugular vein is cannulated for injection of drugs and the carotid artery for monitoring blood pressure. The trachea is cannulated for artificial ventilation by miniature Starling pump and for indirect measurement of respiratory volume changes as described, infra. Succinylcholine (2 mg/kg, i.v.) is administered to arrest spontaneous respiration. A cyclooxygenase inhibitor, indomethacin (10 mg/kg in tris buffer, i.v. at 9 min.) is administered to shunt arachidonic metabolism to lipoxygenase pathways. One minute later, chlorpheniramine (1.0 mg/kg in saline, i.v.) is given to attenuate the histaminic component of anaphylactic bronchoconstriction. Test drugs (dissolved in propylene glycol, polyethylene glycol or saline) are administered either intraduodenally or by aerosol at 2 or 10 minutes before antigen challenge. Anaphylactic bronchoconstriction is induced by administration by breaths of aerosolized OA (1%) or by intravenous administration of 0.1-0.3 mg/kg OA in saline. Control animals receive solvent (2 ml/kg i.d. or appropriate aerosol) in place of drug.
Respiratory volume changes are determined by a calibrated piston whose travel is recorded, via a linear transducer, on a Beckman Dynograph recorder. Maximal bronchoconstrictor volume is determined by clamping off the trachea at the end of the experiment. Overflow volumes at minutes 1, 3 and 5 are obtained from the recorded charts.
Area under the volume overflow curve (AUC) is estimated, using the overflow values at 1, 3 and 5 minutes, and expressed as a percentage of the maximal overflow AUC (equation 1): [formula] Drug effects are reported as percent inhibition of % max AUC values obtained from appropriate control animals (equation 2): [formula] Students t-test for unpaired data is used to determine statistical significance. Dose response curves are generated and ED50 doses are interpolated from the regression lines.
Results for compounds of the invention in this assay, using LTD4 for induction of bronchospasm, are given below: […]

Molecule | inhibition in vivo at 25 mg/kg ([1]; 25 mg/kg intraduodenal) | inhibition in vivo at 50 mg/kg ([1]; 50 mg/kg intraduodenal) | inhibition at 50 µM [2] | also measured
CCOC(=O)CC(=O)NCC(O)c1cccc(OCc2ccc3ccccc3n2)c1 (racemic) [Example 7C, 3-[[2-Hydroxy-2-[3-(2-quinolinylmethoxy)phenyl]ethyl]amino]-3-oxopropanoicacid, ethyl ester] | 24.9% |  |  | 
CCN(CC)C(=O)N(C)C[C@H](O)c1cccc(OCc2nc3ccccc3s2)c1 [Example 1, (1R)-1-[3-[(2-Benzthiazoyl)-methoxy]phenyl]-2-(N-methyl-N-diethylcarbamoyl)amino ethanol] |  | 59.2% | > 50% | IC50 [2]: 40.4 µM
CCN(CC)C(=O)N(C)C[C@H](O)c1cccc(OCc2nc3ccccc3n2C)c1 [Example 2A, (1R)-1-[3-[(1-Methyl-2-benzimidazoyl)methoxy]phenyl]-2-(N-methyl-N-diethylcarbamoyl)amino ethanol] |  | 77.2% | > 50% | inhibition in vivo at 50 mg/kg ([3]; 50 mg/kg intraduodenal): 83.4%; IC50 [2]: 16.4 µM
CCN(CC)C(=O)N(C)C[C@H](O)c1cccc(OCc2ccc3ccccc3n2)c1 [Example 2B, (1R)-1-[3-[(2-Quinolinyl)methoxy]phenyl]-2-(N-methyl-N-diethylcarbamoyl)amino ethanol] |  |  |  | inhibition in vivo at 50 mg/kg ([3]; 50 mg/kg intraduodenal): 75.8%
CCC(=O)N(C)C[C@H](O)c1cccc(OCc2nc3ccccc3n2C)c1 [Example 2C, (1R)-1-[3-[(1-Methyl-2-benzimidazoyl)methoxy]phenyl]-2-(N-methyl-N-propanoyl)amino ethanol] |  | 63.9% | < 50% | inhibition in vivo at 50 mg/kg ([3]; 50 mg/kg intraduodenal): 65.6%
CN(C[C@H](O)c1cccc(OCc2ccc3ccccc3n2)c1)C(=O)c1ccncc1 [Example 2D, (1R)-1-[3-[(2-Quinolinyl)methoxy]phenyl]-2-[N-methyl-N-(4-pyridinoyl)]amino ethanol] |  | 43.9% | < 50% | 
CN(C[C@H](O)c1cccc(OCc2ccc3ccccc3n2)c1)C(=O)N(c1ccccc1)c1ccccc1 [Example 2E, (1R)-1-[3-[(2-Quinolinyl)methoxy]phenyl]-2-(N-methyl-N-diphenylcarbamoyl)amino ethanol, hydrochloride] |  | 21% | > 50% | 
CN(C)C(=O)N(C)C[C@H](O)c1cccc(OCc2ccc3ccccc3n2)c1 [Example 2F, (1R)-1-[3-[(2-Quinolinyl)methoxy]phenyl]-2-(N-methyl-N-dimethylcarbamoyl)amino ethanol] |  | 92.6% | > 50% | 
CCN(CC)C(=O)N(CC)C[C@H](O)c1cccc(OCc2ccc3ccccc3n2)c1 [Example 2G, (1R)-1-[3-[(2-Quinolinyl)methoxy]phenyl]-2-(N-ethyl-N-diethylcarbamoyl)amino ethanol] |  | 65.1% | > 50% | 
CN(C)S(=O)(=O)N(C)C[C@H](O)c1cccc(OCc2ccc3ccccc3n2)c1 [Example 2H, (1R)-1-[3-[(2-Quinolinyl)methoxy]phenyl]-2-(N-methyl-N-dimethylsulfamoyl)amino ethanol] |  | 56% |  | inhibition in vivo at 50 mg/kg ([3]; 50 mg/kg intraduodenal): 2.5%; inhibition in vivo at 50 mg/kg ([1]; po, 50 mg/kg peroral): 25.4%
COC(=O)[C@@H]1CCCN1C(=O)N(C)C[C@H](O)c1cccc(OCc2ccc3ccccc3n2)c1 [Example 2I, (S)-1-[[[(R)-2-Hydroxy-2-[3-(2-quinolinylmethoxy)phenyl]ethyl]methylamino]carbonyl]-2-pyrrolidine carboxylic acid, methyl ester, hydrochloride] |  | 71.2% |  | inhibition in vivo at 50 mg/kg ([3]; 50 mg/kg intraduodenal): 22.5%
CCN(CC)C(=O)N(C)C[C@@H](O)c1cccc(OCc2ccc3ccccc3n2)c1 [Example 2J, (1S)-1-[3-[(2-Quinolinyl)methoxy]phenyl]-2-(N-methyl-N-diethylcarbamoyl)amino ethanol] |  |  |  | inhibition in vivo at 25 mg/kg ([3]; 25 mg/kg intraduodenal): 81.2%
CCOC(=O)N(C)C[C@H](O)c1cccc(OCc2ccc3ccccc3n2)c1 [Example 2K, (1R)-1-[3-[(2-Quinolinyl)methoxy]phenyl]-2-(N-methyl-N-ethylcarboxylate)amino ethanol] |  | 70.6% |  | 
CCOC(=O)NCC(O)c1cccc(OCc2ccc3ccccc3n2)c1 (stereo not shown) [Example 2L, 1-[3-[(2-Quinolinyl)methoxy]phenyl]-2-(N-ethylcarboxylate)amino ethanol] | 35.6% |  |  | 
CCNC(=O)N(C)C[C@H](O)c1cccc(OCc2ccc3ccccc3n2)c1 [Example 3] | 94.9% | 81.7% |  | inhibition in vivo at 50 mg/kg ([3]; po, 50 mg/kg peroral): 46.4%
CCNC(=O)O[C@@H](CN(C)C(=O)NCC)c1cccc(OCc2ccc3ccccc3n2)c1 [Example 5, Ethylcarbamic acid (1R)-2-[[(ethylamino)carbonyl]methylamino]-1-[3-(2-quinolinylmethoxy)phenyl]ethyl ester, hydrochloride] |  | 54.2% |  | inhibition in vivo at 50 mg/kg ([3]; 50 mg/kg intraduodenal): 80.2%; inhibition in vivo at 50 mg/kg ([1]; po, 50 mg/kg peroral): 18.6%
O=C(NCC(O)c1cccc(OCc2ccc3ccccc3n2)c1)c1ccccn1 (stereo not shown) [Example 6, N-[2-Hydroxy-2-[3-(2-quinolinylmethoxy)phenyl]ethyl]-2-pyridine carboxamide] | 19.8% |  |  | 
O=C(NCC(O)c1cccc(OCc2ccc3ccccc3n2)c1)c1cccs1 (stereo not shown) [Example 7B, N-[2-Hydroxy-2-[3-(2-quinolinylmethoxy)phenyl]ethyl]-2-thiophene carboxamide] | 81.9% |  |  | 
C#CCN(C)C[C@H](O)c1cccc(OCc2ccc3ccccc3n2)c1 [Example 8, α-[[Methyl-(2-propynyl)amino]methyl]-3-(2-quinolinylmethoxy)benzene methanol] | 41.2% |  |  | 
O=S(=O)(NCC(O)c1cccc(OCc2ccc3ccccc3n2)c1)C(F)(F)F (stereo not shown) [Example 9, 1,1,1-Trifluoro-N-[2-hydroxy-2-[3-(2-quinolinylmethoxy)phenyl]ethyl]methanesulfonamide] | 84.8% |  |  | inhibition in vivo at 25 mg/kg ([1]; po, 25 mg/kg peroral): 75.6%
N-[2-Hydroxy-2-[3-(2-quinolinyl)phenyl]ethyl]benzamide [Example 7A] |  |  |  | % Inhibition of Max AUC ([1]; 25 mg/kg intraduodenal): 18.1%
